Assay results as given in patent US6790645B2, “Oxidation of a cyclohexanone derivative using a brevibacterium cyclohexanone monooxygenase” (E. I. du Pont de Nemours and Company, priority 1999, dated 2004).

What was measured:
[1] = system: Brevibacterium monooxygenase 1 (ORF 1.3); experiment: Spectrophotometric monooxygenase assay (NADPH oxidation at 340 nm), substrate specificity for cyclic ketones, monooxygenase 1; assay type: biochemical, Brevibacterium sp HCU; settings: NADPH 0.3 mM, pH7, 30° C., activities below 2.0 could reflect contaminants
Method: (§1) The cyclohexanone monooxygenase activity of each overexpressed enzyme was assayed spectrophotometrically at 340 nm by monitoring the oxidation of NADPH. In a spectrophotometer cuvette containing 50 mM Tris-HCl, 50 mM K Acetate pH7 at 30° C. NADPH 0.3 mM and 20-50 μg of homogenous monooxygenase the reaction was initiated by the addition of 1 mM of cyclohexanone. Substrate specificity of each enzyme was tested with other cyclic ketones added at 0.1 or 0.5 mM.
(§2) Expression of the His6-tagged proteins was done by growing the cells carrying the expression plasmids in 1 l of Luria-Bertani broth (Miller 1972) containing Ampicillin (100 μg/ml) and tetracyclin (10 μg/ml) at 28° C. Riboflavin (1 μg/ml) was also added to the medium since both monooxygenases are flavoproteins. When the absortion reached 0.5 at 600 nm, 1 mM isopropy-thio-b-galactoside (IPTG) was added to the culture. Cells were harvested 1.5 hr later, resuspended in 2 ml of 300 mM NaCl 5% glycerol 20 mM Tris-HCl pH 8.0 (Buffer A) containing 10 mM EDTA and 100 μg lysozyme and disrupted by three freeze/thaw cycles. Nucleic acids were digested by addition of MgCl2 (20 mM) RNAseA and DNAse I (10 μg each). The particulate fraction was removed by centrifugation at 14,000 RPM and the supernatant was mixed for 1 hr at 4° C. with 100 μl of a metal chelation agarose (Ni-NTA Superflow Qiagen, Valencia, Calif.) saturated with Ni(II) and equilibrated Buffer A containing 5 mM imidazole. The resin was washed bathchwise with 10 ml each of Buffer A containing 5, 10, 15, 20, 40, 80, 150 and 300 mM respectively. The bound proteins were eluted between 80 and 150 mM imidazole. Eluted proteins were concentrated by ultrafiltration with a Centricon device (cut off 10,000 Da, Amicon) and the buffer replaced by Buffer A. Homogeneity of the overexpressed proteins is shown in FIG. 3, which show a gel electrophoresis separation of proteins from control E. coli (lane 1), E. coli expressing ORF 1.3 (lane 2) and E. coli expressing ORF 2.4 (lane 3).
(§3) Each monooxygenase oxidized cyclohexanone as measured spectrophoto-metrically by monitoring the oxidation of NADPH at 340 nm. No activity was observed when NADPH was replaced by NADH. The product of the cyclohexanone oxidation was confirmed to be caprolactone by GC-MS analysis. Monooxygenase 1 and 2 have different substrate specificity relative to the number of carbon atoms, the oxidation or the substitution of the ring.

[2] = system: Brevibacterium monooxygenase 2 (ORF 2.4); experiment: Spectrophotometric monooxygenase assay (NADPH oxidation at 340 nm), substrate specificity for cyclic ketones, monooxygenase 2; assay type: biochemical, Brevibacterium sp HCU; settings: NADPH 0.3 mM, pH7, 30° C., activities below 2.0 could reflect contaminants
Method: as §1, §2, §3

[3] = system: E. coli strains carrying plasmids pPCB1 and pPCB2 that express the monooxygenase ORF 1.3 and ORF 2.4; experiment: Conversion of cyclohexanone into caprolactone by cell suspensions, GC-MS; assay type: cell-based; settings: 100 ppm cyclohexanone, M9 medium with 0.2% glucose, IPTG-induced cells (FIG. 5)
Method: Confirmation of the oxidation of cyclohexanone into caprolactone was determined by GC-Mass Spectrometry on a HP 5890 Gas Chromatograph with HP 5971 mass selective detector equipped with a HP-1 capillary column (Hewlett Packard). Prior to analysis, samples were acidified to pH 3 by HCl, extracted by dichloromethane three times, dried with MgSO4 and filtered.
Twenty ml cultures of E. coli strains carrying plasmids pPCB1 and pPCB2 that express the monooxygenase ORF 1.3 and ORF 2.4 respectively were grown at 30° C. in LB medium containing Ampicillin (100 μg/ml) and tetracyclin (10 μg/ml). When the absorbance reached 0.1 at 600 nm, 1 mM IPTG was added to the culture to induce the monooxygenases. After 1 hr, the cultures were chilled and washed twice with M9 mineral medium (Sambrook, J., Fritsch, E. F. and Maniatis, T. Molecular Cloning: A Laboratory Manual, Second Edition, Cold Spring Harbor Laboratory Press, Cold Spring Harbor (1989)) and resuspended in 2 ml of the same medium containing 0.2% glucose and 100 ppm of cyclohexanone. After one hr the cells were removed from the culture by centrifugation and supernatant was analyzed by GC-MS as described in the General Methods. The GC-MS analysis indicated the disappearance of cyclohexanone and the appearance of caprolactone. […]

Row | Mono 1 rate ([1]; substrate 0.1 mM) | Mono 1 rate ([1]; substrate 0.5 mM) | Mono 2 rate ([2]; substrate 0.1 mM) | Mono 2 rate ([2]; substrate 0.5 mM) | Structure (SMILES) | time until all cyclohexanone was oxidized [3]
1 | 9 min⁻¹ | 52 min⁻¹ | 7.6 min⁻¹ | 34 min⁻¹ | O=C1CCCCC1=O [1,2-cyclohexanedione] | 
2 | 250 min⁻¹ | 260 min⁻¹ | 37 min⁻¹ | 97 min⁻¹ | CC1CCCCC1=O (centres unmarked) [2-methylcyclohexanone] | 
3 | 1.2 min⁻¹ | 7.0 min⁻¹ | 90 min⁻¹ | 120 min⁻¹ | O=C1CCCC1 [cyclopentanone] | 
4 | 4.5 min⁻¹ | 18 min⁻¹ | 3.9 min⁻¹ | 8.6 min⁻¹ | O=C1CCCCCC1 [cycloheptanone] | 
5 | 40 min⁻¹ | 110 min⁻¹ | 120 min⁻¹ | 110 min⁻¹ | CC1CCCC1=O (centres unmarked) [2-methylcyclopentanone] | 
6 | 2.3 min⁻¹ | 1.9 min⁻¹ | 64 min⁻¹ | 80 min⁻¹ | O=C1C=CCCC1 [cyclohex-2-ene-1-one] | 
7 | 130 min⁻¹ | 210 min⁻¹ | 53 min⁻¹ | 88 min⁻¹ | O=C1CCC(=O)CC1 [1,4-cyclohexanedione] | 
8 | 1.2 min⁻¹ | 1.4 min⁻¹ | 0.6 min⁻¹ | 0.9 min⁻¹ | O=C1CCCCCCCCCC1 [cycloundecanone] | 
9 |  | 1 min⁻¹ | 1.8 min⁻¹ | 1.2 min⁻¹ | O=C1CCCCCCCCC1 [cyclodecanone] | 
10 | 0.3 min⁻¹ | 1.2 min⁻¹ | 18 min⁻¹ | 60 min⁻¹ | O=C1CCCC(=O)C1 [1,3-cyclohexanedione] | 

Row | Structure (SMILES) | Mono 1 rate ([1]; substrate 0.1 mM) | Mono 1 rate ([1]; substrate 0.5 mM) | Mono 2 rate ([2]; substrate 0.1 mM) | Mono 2 rate ([2]; substrate 0.5 mM) | time until all cyclohexanone was oxidized [3]
11 | O=C1CCCCCCCCCCC1 [cyclododecanone] | 1 min⁻¹ | 0.9 min⁻¹ | 1.2 min⁻¹ | 1.8 min⁻¹ | 
12 | O=C1CCCCCCC1 [cyclooctanone] | 0.9 min⁻¹ | 0.4 min⁻¹ | 1.3 min⁻¹ | 1.3 min⁻¹ | 
13 | O=C1CCC1 [cyclobutanone] | 235 min⁻¹ | 171 min⁻¹ | 92 min⁻¹ | 96 min⁻¹ | 
14 | O=C1CCCCC1 [cyclohexanone] | 160 min⁻¹ | 290 min⁻¹ | 100 min⁻¹ | 100 min⁻¹ | about 75 min
15 | O=C1CCCCC1C1=CCCCC1 (centres unmarked) [2-(cyclohex-1-enyl)cyclohexanone] | 160 min⁻¹ | 260 min⁻¹ |  | 2.4 min⁻¹ | 
